Assay results published in US20110039793A1, “Application of ginsenoside Rb1 in preparing medicaments for treating dilated cardiomyopathy” (priority 2008, published 2011).

Tested on: cTnT^R141W transgenic dilated cardiomyopathy mice model
Test: Cardiac gene expression, RT-PCR method
Assay type: in vivo
Conditions: cardiac tissue, long-term administration
Procedure: Effects on some cardiac gene expression of the mice model with dilated cardiomyopathy after a long-term administration of ginsenoside Rb1 (RT-PCR method)
1) Pulverize the tissue in liquid nitrogen, and then add 1 ml Trizol liquid into the 50-100 mg tissue;
2) Place the grinded liquid at RT for 5 min, add 0.2 ml chloroform into the grinded liquid, tightly cap the centrifuge tube, and violently vortex the centrifuge tube for 15 sec;
3) Remove 0.5 ml the upper transparent liquid into a new centrifuge tube, add 0.5 ml isopropanol, placed at RT for 10 min, and centrifugate at 4° C., 12000 g for 10 min;
4) Remove the supernatant, add 1 ml 75% ethanol and centrifugate at 4° C., 7500 g for 5 min;
5) Carefully remove the supernatant, then dried at RT for 5-10 min, and then dissolved in DEPC-treated water.
2. RT-PCR (Reverse Transcription—Polymerase Chain Reaction)
Add the above mixture into the tube in step 1), then incubated at 42° C. for 2 min;
3) Add 1 μl SuperScript, II RT at 42° C. for 50 min;
4) Placed on ice for 15 min;
5) Add 1 μl RNase H, then incubated at 37° C. for 20 min;
6) PCR reaction system is shown as follow:
7) General conditions of PCR are shown as follow. Pre-denaturation at 94° C. for […], and extension at 72° C. for […] And the annealing temperature, the annealing time, the primer sequences and the cyclic numbers are shown in Table 2.
wherein, Gapdh serves as the loading control.

## CC(C)=CCC[C@](C)(O[C@@H]1O[C@H](CO[C@@H]2O[C@H](CO)[C@@H](O)[C@H](O)[C@H]2O)[C@@H](O)[C@H](O)[C@H]1O)[C@H]1CC[C@]2(C)[C@@H]1[C@H](O)C[C@@H]1[C@@]3(C)CC[C@H](O[C@@H]4O[C@H](CO)[C@@H](O)[C@H](O)[C@H]4O[C@@H]4O[C@H](CO)[C@@H](O)[C@H](O)[C@H]4O)C(C)(C)[C@@H]3CC[C@]12C [Rb1, ginsenoside Rb1]
  expression of Cx40: increase
  expression of E-cadherin: increase
  expression of Itga8: decrease
  expression of Itgbp: decrease
  expression of P-cadherin: increase
FGF2, 7, 8, 10
  expression of the fibroblast growth factor FGF: improve
